Results from patent US20250353873A1, “COMPOUNDS AND METHODS FOR MODULATING APOE EXPRESSION” (Ionis Pharmaceuticals, Inc., priority 2024, published 2025).
Strand notation (5' to 3'): a small letter for the sugar, then the base; units joined by * are phosphorothioate-linked, units joined directly phosphodiester-linked; [ ] holds rarer units or linkages, { } end groups; capitals alone tell only the bases. [ms] = mesyl phosphoramidate linkage; e = 2'-O-(2-methoxyethyl) (MOE); k = constrained ethyl (cEt); [5mC] = 5-methylcytosine; d = 2'-deoxy (DNA)

Legend:
[1] = system: human APOE RNA; assay: Potency (dose response, ED50) in APOE C57BL/6NTac-Apoeem7250 knock-in mice, 4 weeks (Example 14); format: in vivo; settings: for ED 50 (μg) Cortex / ED 50 (μg) Spinal Cord: single ICV bolus, GraphPad Prism 10
Experimental: Modified oligonucleotides described above were tested in the APOE C57BL/6NTac-Apoeem7250 knock-in mouse model described above.
APOE C57BL/6NTac-Apoeem7250 knock-in mice were divided into groups of 3-4 mice each. A group of 3-4 mice received a single ICV bolus with PBS as a negative control.
Four weeks post treatment, mice were sacrificed, and RNA was extracted from cortical brain tissue and spinal cord for quantitative real-time RT-PCR analysis of RNA expression of […] using human primer probe set RTS3073 (described herein above). APOE RNA levels were normalized to mouse Ppia. Mouse Ppia was amplified using primer probe set m_cyclo24 (described herein above). Results are presented as percent human APOE RNA relative to the amount of APOE RNA in PBS treated animals, (% control). N.C. indicates values that were not calculated. Each experiment is identified in separate tables below.
The half maximal effective dose (ED50) of each modified oligonucleotide was calculated using GraphPad Prism 10 software (GraphPad Software, San Diego, CA).

[2] = system: human APOE RNA; assay: Activity in APOE C57BL/6NTac-Apoeem7250 knock-in mice, single ICV bolus, 16 weeks (Example 12); format: in vivo; settings: single ICV bolus 300 μg, 16 weeks post treatment, normalized to mouse Ppia
Summary of the method: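 A single 300 μg intracerebroventricular dose was given, with PBS-treated mice as reference; cortical and spinal cord tissue was taken 16 weeks later. RT-qPCR quantified human APOE RNA, Ppia-normalized, expressed relative to PBS animals (% control).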

[3] = system: human APOE RNA; assay: Dose-dependent inhibition of human APOE RNA in HepG2 cells, electroporation, 50,000 cells per well, RT-PCR normalized to GAPDH (Example 4, Tables 8-10); format: cell-based; settings: HepG2 cells, electroporation, Table 8; for APOE RNA (% UTC) 5 nM / APOE RNA (% UTC) 13 nM / APOE RNA (% UTC) 33 nM / APOE RNA (% UTC) 82 nM / APOE RNA (% UTC) 205 nM / APOE RNA (% UTC) 512 nM / IC50: 24-hour treatment; for APOE RNA (% UTC) 1,280 nM: 24-hour treatment, 1,280 nM; for APOE RNA (% UTC) 3,200 nM: 24-hour treatment, 3,200 nM; for APOE RNA (% UTC) 8,000 nM: 24-hour treatment, 8,000 nM; for APOE RNA (% UTC) 20,000 nM: 24-hour treatment, 20,000 nM; for IC50: reduction of human APOE RNA
Summary of the method: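 Readout is percent APOE RNA versus untreated controls, measured by RT-PCR (primer probe set RTS3073) and normalized to human GAPDH. Modified oligonucleotides were delivered by electroporation at varying doses into HepG2 cells plated at 50,000 per well.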

Substance | APOE RNA (% control) Cortex ([1]; ICV dose 10 μg) [% control] | APOE RNA (% control) Cortex ([1]; ICV dose 30 μg) [% control] | APOE RNA (% control) Cortex ([1]; ICV dose 100 μg) [% control] | APOE RNA (% control) Cortex ([1]; ICV dose 300 μg) [% control] | APOE RNA (% control) Cortex ([1]; ICV dose 700 μg) [% control] | ED 50 (μg) Cortex [1] [µg] | APOE RNA (% control) Spinal Cord ([1]; ICV dose 10 μg) [% control] | APOE RNA (% control) Spinal Cord ([1]; ICV dose 30 μg) [% control] | APOE RNA (% control) Spinal Cord ([1]; ICV dose 100 μg) [% control] | APOE RNA (% control) Spinal Cord ([1]; ICV dose 300 μg) [% control] | APOE RNA (% control) Spinal Cord ([1]; ICV dose 700 μg) [% control] | ED 50 (μg) Spinal Cord [1] [µg] | APOE RNA (% control) Cortex [2] [% control] | APOE RNA (% control) Spinal Cord [2] [% control] | APOE RNA (% UTC) 5 nM [3] [% UTC] | APOE RNA (% UTC) 13 nM [3] [% UTC] | APOE RNA (% UTC) 33 nM [3] [% UTC] | APOE RNA (% UTC) 82 nM [3] [% UTC] | APOE RNA (% UTC) 205 nM [3] [% UTC] | APOE RNA (% UTC) 512 nM [3] [% UTC] | further results
1778130: modified oligonucleotide complementary to human APOE RNA (eA*e[5mC]eTeTeG*kG*dT*dG[ms]dA[ms]dA*dT*d[5mC]*dT*dT*dT*dA[ms]kTkT*eA*eA; antisense) [compound 1778130] | 123 | 100 | 69 | 74 | 37 | 502.4 | 88 | 35 | 27 | 22 | 32 | 35.9 | 34 | 15 | 100 | 106 | 93 | 75 | 61 | 44 | APOE RNA (% UTC) 1,280 nM [3]: 26 % UTC; APOE RNA (% UTC) 3,200 nM [3]: 19 % UTC; APOE RNA (% UTC) 8,000 nM [3]: 10 % UTC; APOE RNA (% UTC) 20,000 nM [3]: 6 % UTC; IC50 [3]: 400 nM
1778131: modified oligonucleotide complementary to human APOE RNA (eA*e[5mC]eTeTeGkG*dT*dG[ms]dA[ms]dA*dT*d[5mC]*dT*dT*dT*dA[ms]kTkT*eA*eA; antisense) [compound 1778131] | 115 | 105 | 61 | 37 | 29 | 216.5 | 79 | 64 | 36 | 40 | 34 | 94.0 | 34 | 17 | 104 | 117 | 101 | 78 | 71 | 50 | APOE RNA (% UTC) 1,280 nM [3]: 35 % UTC; APOE RNA (% UTC) 3,200 nM [3]: 28 % UTC; APOE RNA (% UTC) 8,000 nM [3]: 7 % UTC; APOE RNA (% UTC) 20,000 nM [3]: 5 % UTC; IC50 [3]: 630 nM
